Data set [1] is described as follows: pH-dependent aqueous solubility (UV spectrophotometry). Format: physicochemical. The conditions noted are these: aqueous buffer, thermodynamic from solid, 37 °C. The protocol: A stock solution of the target compound was prepared by dissolving 1 mg in methanol, and the wavelength of greatest absorption of each compound was obtained by scanning between wavelengths from 200 nm to 500 nm. Six dilutions were prepared from the stock solution and the absorbance reading in the UV spectrophotometer (SpectraMax M5, Molecular Devices, USA). The calibration curve with linear regression was created with the values obtained, and the solubility test was measured by correlating the concentration with the absorbance obtained by ultraviolet. Each compound was added in excess at phosphate buffer solution pH 5.8 and 7.4 to obtain a supersaturated solution that was kept under stirring for 4 h at 37 °C and then was filtered through a 0.45 µm filter for reading at the corresponding wavelengths. The solubility was determined through the equation of the straight line obtained by the linear regression of the calibration curve of the compounds [24, 25].

Data set [2] relates to PC-3, MCF7, K562, CCRF-CEM and MOLT-4. The data set is described as follows: MTT single-concentration cytotoxicity screening. Type of data set: cell-based, human. The conditions noted are these: for solubility in the culture medium: during screening at 30 μM; for cytotoxic activity at screening concentration: single concentration 1 μM; for cytotoxic effect on leukemia cell lines at single concentration: single concentration 30 μM, reduction in cell viability ≥ 50% selected for CC50. As for the experimental part:
In a first approach, the assay was validated with two standard drugs: gedatolisib and GSK-1059615.
After understanding the response profile of the selected cell lines to the treatment with gedatolisib and GSK-1059615, we investigated the cytotoxic activity of compounds 5a-f at a single concentration (30 μM). […] During the experiments, compounds 5a (LASSBio-2250), 5b (LASSBio-2251) and 9 (CAS-942789959) were insoluble and precipitated on the culture medium. Therefore, they were evaluated also at the screening concentration of 1 μM.
(§1) Cell viability was assessed by the MTT assay. The lines selected for this study were plated according to their respective densities, which ranged from 3 × 10^4 to 4 × 10^4 cells per well. Subsequently, they were treated with test compounds at different concentrations (0.00003 μM to 150 μM), gedatolisib and GSK-1059615.
(§2) After incubation, the plates are centrifuged at 440× g for 10 min. Then, 110 μL of the supernatant was withdrawn and each well received 10μL of the MTT solution. The plate was again incubated in an oven at 37 °C and 5% CO2 for 3 to 4 h. At the end of the incubation time, 100 μL of SDS-HCL detergent was added to solubilize the formazan crystals. The plate was shaken on an automatic overnight shaker and then read at a wavelength of 595 nm on the Molecular Devices Spectramax M5 plate reader.

Data set [3] has as its system K562. The data set is described as follows: MTT cell viability assay. Type of data set: cell-based. Conditions: Homo sapiens, K562, 72 h MTT; for CC50: 95% confidence interval in brackets; for Emax: read-out: Emax (maximum effect at maximum concentration used). As for the experimental part:
(§3) For the evaluation of cellular cytotoxicity in cancer cell lines, the compounds were tested at concentrations ranging from 0.00003 μM to 150 μM. Immortalized cancer cells were selected: PC-3 (PTEN-mutated prostate adenocarcinoma), MCF-7 (PI3KCA-mutated breast carcinoma), K562 (P53-mutated chronic myeloid leukemia), CCRF-CEM (acute lymphoblastic leukemia with mutation in PTEN) and MOLT-4 (acute lymphoblastic leukemia with mutation in PI3KR1/PTEN). Peripheral blood mononuclear cells (PBMCs) were used to determine the cytotoxic selectivity index (SI). All immortalized cells were cultured in RPMI 1640 medium with 10% (v/v) FBS, streptomycin + penicillin, at 37 °C in a humidified incubator containing 5% CO2.
as §1, §2

The test system of data set [4] is MCF7. The data set is described as follows: MTT cell viability assay. Type of data set: cell-based. The conditions noted are these: Homo sapiens, MCF7, 72 h MTT; for CC50: 95% confidence interval in brackets; for Emax: read-out: Emax (maximum effect at maximum concentration used). As for the experimental part: as §3, §1, §2
Data set [5] deals with PC-3. Description: MTT cell viability assay. Type of data set: cell-based. Conditions: Homo sapiens, PC-3, 72 h MTT; for CC50: 95% confidence interval in brackets; for Emax: read-out: Emax (maximum effect at maximum concentration used). As for the experimental part: as §3, §1, §2
For orientation: Tetrazolium dyes change colour on reduction, which living cells bring about.

The subject of data set [6] is CCRF-CEM. Description: MTT cell viability assay. Conditions: Homo sapiens, 72 h MTT; for CC50: 95% confidence interval in brackets; for Emax: read-out: Emax (maximum effect at maximum concentration used). Format: cell-based, human. The protocol: as §3, §1, §2
Data set [7] has as its system MOLT-4. Description: MTT cell viability assay. Format: cell-based, human. The conditions noted are these: Homo sapiens, MOLT-4, 72 h MTT; for CC50: 95% confidence interval in brackets; for Emax: read-out: Emax (maximum effect at maximum concentration used). The protocol:
as §3, §1, §2

The test system of data set [8] is CCRF-CEM cell line. The data set is described as follows: Muse Cell Cycle Kit. Type of data set: cell-based, human. The conditions noted are these: 48 h. As for the experimental part: The Guava Muse Luminex® Cell Cycle Kit (catalog n^o MCH100106, Luminex) contains the DNA marker propidium iodide (PI) and RNAse A to avoid nonspecific labelling.
After 48 h of incubation in an incubator at 37 °C with 5% CO2, 1 mL of the MOLT-4 cell solution and 500 µL of the CCRF-CEM cell solution, contained in the wells, were transferred to Eppendorf tubes and centrifuged at 300× g for 5 min. The volumes used ensured that the cell density remained within the recommended range (1 × 10^6 to 4 × 10^6 cells/mL) at the end of the 48 h incubation period.
The supernatant was discarded, and the pellet formed was resuspended in 1 mL of saline PBS, homogenised, and centrifuged at 300× g for 5 min. The formed pellet was resuspended in residual PBS by homogenization. To fix cellular events, 1 mL of ice-cold 70% alcohol was added dropwise into the tubes and vortexed at medium speed. The samples were incubated, before staining, for at least 3 h at −20 °C.
At the end of the incubation time at −20 °C, the samples were centrifuged at 300× g for 5 min, and then the supernatant was discarded and resuspended in 250 µL of PBS. The samples were again centrifuged at 300× g for 5 min and the supernatant discarded, which constituted the washing step. The pellet formed was resuspended in 200 µL of the Guava Muse Luminex® Cell Cycle, and the tubes were incubated for 30 min at room temperature, away from light.
After incubation, the samples were read in Guava Muse Luminex®, and the data with the histograms generated, which contain information on the percentage of the different phases of the cell cycle, were analysed in the statistical program Prism6. This methodology was performed in duplicate of three independent experiments.

Where [9] appears, read: phosphate buffer pH 5.8 (duodenum), read-out: Solubility pH 5.8.
Where [10] appears, read: phosphate buffer pH 7.4 (plasma), read-out: Solubility pH 7.4.

Structures are written as SMILES. Converted amounts (≈) assume the structure as drawn. Like-named read-outs stand apart in the source and are kept apart here.

`c1ccc(N2CCN(c3nc(N4CCOCC4)nc(N4CCSCC4)n3)CC2)cc1` [5a, 4-(4-(4-Phenylpiperazin-1-yl)-6-thiomorpholino-1,3,5-triazin-2-yl)morpholine] gave a melting point of 170 °C. Besides, in data set [1] (setting [9]), the solubility at 4 h was 0.52 µM (≈ 0.222 µg/mL). The solubility at 4 h in data set [1] (setting [10]) worked out at 2.88 µM (≈ 1.23 µg/mL). Also, in data set [2], the “solubility in the culture medium” value is “insoluble” and the “cytotoxic activity at screening concentration” value (shortened to “cytotoxic activity”) was “inactive”.
As to `c1ccc(N2CCN(c3nc(N4CCCCC4)nc(N4CCOCC4)n3)CC2)cc1` [5b, 4-(4-(4-Phenylpiperazin-1-yl)-6-(piperidin-1-yl)-1,3,5-triazin-2-yl)morpholine], the solubility at 4 h in [1] (setting [9]) came to 2.84 µM (≈ 1.16 µg/mL). The solubility at 4 h in [1] (setting [10]) was determined as 0.51 µM (≈ 0.209 µg/mL). In [2], the “solubility in the culture medium” value is “insoluble” and the “cytotoxic activity” value is “inactive”.
On to `c1ccc(N2CCN(c3nc(N4CCNCC4)nc(N4CCOCC4)n3)CC2)cc1` [5c], for which the values for the solubility at 4 h in [1] (setting [9]) and in [1] (setting [10]) were 43.4 µM (≈ 17.8 µg/mL) and 59.1 µM (≈ 24.3 µg/mL), respectively. Besides, the cytotoxic concentration (CC50) in data set [3] was 25.6 µM; in [4], over 100 µM; in [5] it was 92.3 µM; in data set [6] it was 37.3 µM; in data set [7] it was 31.8 µM. Also, the Emax in [3] turned out to be 85%; in [4], 57%; in data set [5], 58%; in [6], 94%; in data set [7] it was 93%. In [2], the “cytotoxic effect on leukemia cell lines at single concentration” value was “cytotoxic effect”.
Take `CN1CCN(c2nc(N3CCOCC3)nc(N3CCN(c4ccccc4)CC3)n2)CC1` [5d, 4-(4-(4-Methylpiperazin-1-yl)-6-(4-phenylpiperazin-1-yl)-1,3,5-triazin-2-yl)morpholine]: the melting point was 135 °C. Moreover, the solubility at 4 h in data set [1] (setting [9]) amounted to 30.7 µM (≈ 13 µg/mL). Further, in data set [1] (setting [10]), the solubility at 4 h was found to be 50.9 µM (≈ 21.6 µg/mL). Besides, in [3], the midpoint of cytotoxicity, the CC50, lay at 50.2 µM and the Emax worked out at 80%. Also, in data set [4], the CC50 is over 100 µM and the Emax is 77%. Further, in [5], the 50% cytotoxic concentration (CC50) was found to be 91.3 µM and the Emax worked out at 72%. In addition, in data set [6], it took 66.5 µM to reach half-maximal cytotoxicity (CC50) and the Emax was 95%. Besides, in data set [7], the midpoint of cytotoxicity, the CC50, lay at 64.1 µM and the Emax was 91%. In data set [2], the “cytotoxic effect on leukemia cell lines at single concentration” value is on record as “cytotoxic effect”.
Turning to `OCCN1CCN(c2nc(N3CCOCC3)nc(N3CCN(c4ccccc4)CC3)n2)CC1` [5e, 2-(4-(4-Morpholino-6-(4-phenylpiperazin-1-yl)-1,3,5-triazin-2-yl)piperazin-1-yl)ethan-1-ol], the melting point was found to be 92 °C. For the same compound, the solubility at 4 h in data set [1] (setting [9]) was 31.2 µM (≈ 14.2 µg/mL). Further, the solubility at 4 h in data set [1] (setting [10]) is 49.1 µM (≈ 22.3 µg/mL).
Regarding `O=C1NC(=O)/C(=C/c2ccc3nccc(-c4ccncc4)c3c2)S1` [GSK-1059615, reference compound], the CC50 in data set [3] was found to be 1.82 µM; in data set [4], 0.55 µM; in [5] it was 6.78 µM; in data set [6] it was 0.43 µM; in data set [7], 0.63 µM. For the same compound, the Emax in [3] is 84%; in data set [4], 80%; in data set [5] it was 67%; in data set [6], 93%; in [7], 92%.
With `CC[C@]1(O)C[C@H]2CN(CCc3c([nH]c4ccccc34)[C@@](C(=O)OC)(c3cc4c(cc3OC)N(C=O)[C@H]3[C@@](O)(C(=O)OC)[C@H](OC(C)=O)[C@]5(CC)C=CCN6CC[C@]43[C@@H]65)C2)C1` [Vincristine, vincristine], in [8] (5 µM), the “action on the cell cycle” value is “increased arrest in the G2/M phase”.
Turning to `c1ccc(N2CCN(c3nc(N4CCOCC4)nc(N4CCOCC4)n3)CC2)cc1` [compound 9, reference compound], the solubility at 4 h in [1] (setting [9]) came out at 3.92 µM (≈ 1.61 µg/mL). Besides, the solubility at 4 h in [1] (setting [10]) stood at 6.03 µM (≈ 2.48 µg/mL). Moreover, in data set [2], the “solubility in the culture medium” value is on record as “insoluble” and the “cytotoxic activity” value was “inactive”.
As to `COc1cccc2c1C(=O)c1c(O)c3c(c(O)c1C2=O)C[C@@](O)(C(=O)CO)C[C@@H]3O[C@H]1C[C@H](N)[C@H](O)[C@H](C)O1` [doxorubicin], in [8] (0.5 µM), the “action on the cell cycle” value is recorded as “nonspecific action on the cell cycle”.

What is called solubility is the concentration that dissolves in the medium under given conditions. Broadly, the melting point is the temperature, or range, at which the solid turns liquid. A word on the CC50: it is the concentration giving 50% cytotoxicity. A higher CC50 goes with lower toxicity to the cells.

(Values after PMC9964390, “Design, Synthesis and Phenotypic Profiling of Simplified Gedatolisib Analogues” (Pharmaceuticals, 2023).)
